Results on three molecules are retold here after patent publication US8778889B2, “Antimicrobial decapeptide oral hygiene treatment” (The United States of America as represented by the …, priority 2003, dated 2014).

The test system of experiment [1] is A. baumannii WRAMC #11. In kind it is cell-based, Acinetobacter baumannii. From the text:
(§1) As shown in the table below, many drug-resistant pathogens including multidrug-resistant Acinetobacter baumannii (clinical isolates) were susceptible to the bactericidal activity of the newly developed antimicrobial peptides. […] This is shown by their lower MIC and MBC against a number of antibiotic-resistant bacteria including methicillin-resistant Staphylococcus aureus, vancomycin-resistant Enterococci, and multidrug-resistant Acinetobacter baumannii. Many of these resistant strains are involved in nosocomial infections, which affect the immunocompromised and the elderly individuals with weakened defenses. The tests were done in a broth microdilution assay as described in our earlier publication (Concannon et al., 2003).

The test system of experiment [2] is A. baumannii WRAMC #13. The format is cell-based, Acinetobacter baumannii.
Description: as §1

Experiment [3] has as its system A. baumannii WRAMC #14. In kind it is cell-based, Acinetobacter baumannii.
Description: as §1

For experiment [4], the system named is A. baumannii WRAMC #16. The format is cell-based, Acinetobacter baumannii.
Description: as §1

The subject of experiment [5] is A. baumannii WRAMC #17. The format is cell-based, Acinetobacter baumannii.
Description: as §1

Experiment [6] deals with A. baumannii WRAMC #18. In kind it is cell-based, Acinetobacter baumannii.
Description: as §1

For experiment [7], the system named is A. baumannii WRAMC #2. The format is cell-based, Acinetobacter baumannii.
Description: as §1

For experiment [8], the system named is A. baumannii WRAMC #4. In kind it is cell-based, Acinetobacter baumannii.
Description: as §1

The test system of experiment [9] is A. baumannii WRAMC #5. The format is cell-based, Acinetobacter baumannii.
Description: as §1

Experiment [10] concerns A. baumannii WRAMC #8. The format is cell-based, Acinetobacter baumannii.
Description: as §1

Experiment [11] relates to MRSA ATCC #33591. The format is cell-based, Staphylococcus aureus.
Description: as §1

Experiment [12] has as its system MRSA ATCC #43300. In kind it is cell-based, Staphylococcus aureus.
Description: as §1

The subject of experiment [13] is MRSA VVRAMC #10. In kind it is cell-based, Staphylococcus aureus.
Description: as §1

Experiment [14] concerns MRSA VVRAMC #1. In kind it is cell-based, Staphylococcus aureus.
Description: as §1

Experiment [15] has as its system MRSA WRAMC #12. In kind it is cell-based, Staphylococcus aureus.
Description: as §1

For experiment [16], the system named is MRSA WRAMC #9. The format is cell-based, Staphylococcus aureus.
Description: as §1

The test system of experiment [17] is oral biofilms formed on saliva-coated HA disks by salivary bacteria. Description: In vitro plaque assay, viable counts of oral biofilms on saliva-coated HA disks. The format is cell-based, human salivary bacteria. To be noted: intact 45-h-old biofilms, 0.12% chlorhexidine, 1 min. From the text: In conjunction with the dual flow cell system, a modification of an in vitro plaque model of biofilm formation described by Guggenheim et al. (Guggenheim et al., 2001) was used to determine the effects of tested antimicrobials and other agents on developed oral biofilms (see Appendix I for details). HA disks (Clarkson, south Williamsport, Pa.) were employed as substrates for salivary bacteria to form biofilms.
To determine the inhibitory activity of KSL on developed oral biofilms, disks containing 45 h-old biofilms were transferred to wells containing aqueous KSL (200 μg/ml; 1 ml/well). Following 30 min exposure at 37° C., disks were rinsed with 3×1 ml of saline and transferred to sterile 15 ml polypropylene tubes containing 1 ml PBS. Biofilm cells adherent to surfaces (after treatment) were recovered by sonicating for 2 min at 5 watts with a Microson ultrasonic cell disrupter equipped with a cup horn (Misonix Inc., Farmingdale, N.Y.). Settings including the time interval used in the sonication were predetermined empirically to yield maximal recovery of adherent biofilm cells.
The effect of KSL on disrupted biofilms was assessed by recovering biofilm cells from HA disks (45 h-old biofilms) through sonication as described above. The detached biofilm cells (in sterile dH2O) were mixed with an equal volume of aqueous KSL to obtain a final peptide concentration of 200 μg/ml, and the reaction mixtures incubated at 37° C. for 30 min. The interactions of KSL and suspended biofilm cells were terminated by washing in PBS.
To determine the effect of the surface-active agent (benzalkonium chloride; Sigma, St. Louis, Mo.) in promoting the killing of intact biofilms by KSL, 66 h-old oral biofilms were treated with KSL (200 μg/ml), benzalkonium chloride (0.001%), or a combination of the two agents, followed by viable counts determinations and confocal laser scanning microscopy of treated samples.
Viable counts of biofilm cells derived from treated disks or disrupted biofilms were determined by spiral plating serially diluted samples onto blood agar plates. Distilled water or 0.12% aqueous chlorhexidine digluconate (Sigma) was used as the negative or positive control, respectively. The 45 h-old biofilms were exposed to chlorhexidine for 1 min, and to water for 30 min at 37° C.
In this assay, HA disks (Clarkson Chromatography Products, Inc., South Williamsport, Pa.) were used as surfaces on which plaque formation can occur. Before use, sterile HA disks were conditioned in the wells of a 24-well microtiter plate (Becton Dickinson, Franklin Lakes, N.J.) containing 50% sterile saliva by incubating at room temperature for a minimum of two hours on a rotating platform at 95 rpm. The saliva was removed and each well inoculated with isolated salivary bacteria at a bacterial cell concentration of 1.0×10^7 cells/ml in sterile 50% whole saliva. After two hours of incubation (with rotation) at 37° C. to allow the bacteria to adhere to surfaces, unattached bacteria were removed and replaced with supplemented saliva-based medium. The plates were incubated with rotation at 37° C. for 45 h (with medium replaced three times), or 66 h (with medium replaced five times) in a CO2 incubator prior to treatments, and the recovery of biofilm cells from treated or untreated disks.
In these studies, KSL or KSL-W was used at 200 μg/ml, whereas Bzl and CPC were used at 0.001% and 0.0025%, respectively. […]

In experiment [18] the test system is biofilms grown on saliva-coated HA surfaces. Description: Live/Dead BacLight staining with confocal laser scanning microscopy of treated biofilms. The format is cell-based, human salivary bacteria. To be noted: 66 h-old biofilms; KSL 200 μg/ml, Bzl 0.001%, CHX 0.12%. How it is done: (A) Effect of KSL on intact versus disrupted 45 h biofilms formed on saliva-coated HA disks by salivary bacteria using the in vitro plaque assay. A Mann-Whitney test was used for comparison of log reductions in CFU between the experimental groups (KSL-treated intact or disrupted biofilms) with the control groups (dH2O-treated intact or disrupted biofilms). The single asterisk represents a statistically significant difference between KSL and dH2O-treated intact biofilms (p<0.05). Likewise, double asterisks represent a statistically significant difference between KSL and dH2O-treated disrupted biofilms (p<0.01). […] (B) Effect of benzalkonium chloride in promoting the bactericidal activity of KSL against 66 h-old intact oral biofilms formed on saliva-coated HA disks using the in vitro plaque system. A Kruskal-Wallis test was used to compare log reductions in CFU among various treatment groups including the control group (dH2O-treated). The single asterisk represents a statistically significant difference between the combined treatment of KSL and benzalkonium chloride (Bzl) and dH2O (p<0.001), KSL (p<0.01), or Bzl (p<0.01)-treated intact biofilms. Double asterisks represent a statistically significant difference between CHX and dH2O (p<0.001) or Bzl (P<0.05)-treated intact biofilms. […] No significant difference in viability counts was observed between CHX-treated versus the combined use of KSL and Bzl. For (A) and (B), the data represent the determinations of one of three separate experiments, each performed in quadruplicate. Bars represent standard deviations. (C) Confocal images of control and treated biofilms grown on saliva-coated HA surfaces. Live/Dead BacLight™ Viability kit (Molecular Probes, Eugene, Oreg.) was used to assess the viability of biofilm cells exposed to different treatments. […] An excitation wavelength of 488 nm was used and the fluorescence light emitted was collected by two separate emission filters, 500-530 nm (SYTO 9, live), and 650-710 nm (propidium iodide, dead). […]

The subject of experiment [19] is A. baumannii ATCC #19606. In kind it is cell-based, Acinetobacter baumannii.
Description: as §1

The test system of experiment [20] is A. baumannii WRAMC #15. The format is cell-based, Acinetobacter baumannii.
Description: as §1

The subject of experiment [21] is A. baumannii WRAMC #19. In kind it is cell-based, Acinetobacter baumannii.
Description: as §1

The test system of experiment [22] is VRE ATCC #51299. In kind it is cell-based, Enterococci.
Description: as §1

Experiment [23] concerns VRE VVRAMC #7. In kind it is cell-based, Enterococci.
Description: as §1

The subject of experiment [24] is VRE WRAMC #3. The format is cell-based, Enterococci.
Description: as §1

Experiment [25] deals with VRE WRAMC #6. The format is cell-based, Enterococci.
Description: as §1

Converted amounts (≈) assume the structure as drawn. Square brackets hold non-standard residues; d marks the D form. Peptide text beside a SMILES is read from it. αMeK = C[C@](N)(CCCCN)C(=O)O Where only a bound is given, the exact number is not on record here.

A word on the MBC: it is the lowest tested concentration that kills the bacteria rather than only halting them. High values mean weaker bactericidal potency, low ones greater bactericidal potency. With `CC(C)[C@H](NC(=O)[C@H](CCCCN)NC(=O)[C@@H](N)CCCCN)C(=O)N[C@H](C(=O)N[C@@H](Cc1ccccc1)C(=O)N[C@@](C)(CCCCN)C(=O)N[C@H](C(=O)N[C@@H](CCCCN)C(=O)N[C@@H](Cc1ccccc1)C(=O)N[C@@H](CCCCN)C(N)=O)C(C)C)C(C)C` [KSL-M, NH2-Lys-Lys-Val-Val-Phe-Lys(me)-Val-Lys-Phe-Lys-CONH2] (H-KKVVF[αMeK]VKFK-NH2), the MBC in experiment [1] was 100 µg/mL (≈ 79.1 µM); in [2], 200 µg/mL (≈ 158 µM); in experiment [3], 200 µg/mL (≈ 158 µM); in experiment [4], 100 µg/mL (≈ 79.1 µM); in [5], 200 µg/mL (≈ 158 µM); in experiment [6], 100 µg/mL (≈ 79.1 µM). Further, the MBC was 200 µg/mL (≈ 158 µM) in experiment [7]; 50 µg/mL (≈ 39.6 µM) in experiment [8]; 50 µg/mL (≈ 39.6 µM) in experiment [9]; above 200 µg/mL in experiment [10]; above 200 µg/mL in experiment [11]; above 200 µg/mL in experiment [12]. In addition, the MBC in [13], in [14], in experiment [15] and in experiment [16] was above 200 µg/mL each time. Further, the MIC is 50 µg/mL (≈ 39.6 µM) in experiment [4]; 100 µg/mL (≈ 79.1 µM) in experiment [5]; 25 µg/mL (≈ 19.8 µM) in experiment [8]; above 200 µg/mL in experiment [10]; above 200 µg/mL in experiment [11]; above 200 µg/mL in experiment [12]. Besides, the MIC in [13], in experiment [14], in experiment [15] and in [16] was above 200 µg/mL in each case.

Regarding `[H]/N=C(\N/C(=N/[H])NCCCCCCNC(=N)NC(=N)Nc1ccc(Cl)cc1)Nc1ccc(Cl)cc1` [chlorhexidine, chlorhexidine digluconate, reference compound], the “reduction of viable counts, intact biofilms” value in [17] was “larger reduction of viable counts”. Moreover, the “viability of biofilm cells by live/dead staining” value in experiment [18] is reported as “significantly reduced the viability of biofilm cells”.

Take H-DDDEEKFLRRIGRYGKKVVFWVKFK-NH2 [H1-2]: the MBC in experiment [19] came to 25 µg/mL; in experiment [1] it was 50 µg/mL; in experiment [2], 50 µg/mL; in [3], 50 µg/mL; in [20] it was 50 µg/mL; in [4], 25 µg/mL. Besides, the MBC is 100 µg/mL in experiment [5]; 25 µg/mL in experiment [6]; 200 µg/mL in experiment [21]; 200 µg/mL in experiment [7]; 50 µg/mL in [8]; 25 µg/mL in [9]. The MBC worked out at 25 µg/mL in experiment [10]; 12.5 µg/mL in experiment [11]; 12.5 µg/mL in experiment [12]; 25 µg/mL in experiment [13]; 25 µg/mL in experiment [14]; 6.25 µg/mL in experiment [15]. In addition, the MBC in [16] is 3.125 µg/mL; in experiment [22] it was 50 µg/mL; in experiment [23] (VRE VVRAMC #7) it was 0 µg/mL; in [24], 25 µg/mL; in experiment [25], 6.25 µg/mL. The MIC in experiment [19] stood at 12.5 µg/mL; in experiment [1], 25 µg/mL; in [20], 25 µg/mL; in experiment [4], 12.5 µg/mL; in experiment [5] it was 25 µg/mL; in experiment [7], 25 µg/mL. In addition, the MIC was 25 µg/mL in experiment [8]; 3.125 µg/mL in [11]; 3.125 µg/mL in experiment [12]; 1.56 µg/mL in experiment [13]; 3.125 µg/mL in experiment [15]; 12.5 (25) μg/ml in experiment [22]. Moreover, the MIC was below 1.56 µg/mL in experiment [23], 6.25 µg/mL in [24] and below 1.56 µg/mL in experiment [25].
